Measured values: the supplement of paper PMC11451515

How the values were obtained:
Conditions in all cases: 48 h
NOMO1 [1] = assay: cell viability relative to DMSO control; higher = less cytotoxic
Method in brief: (§1)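 NOMO1 or SEM (500 cells/well) or P12-Ichikawa (1000 cells/well) leukemia cells were adapted for at least four passages in each medium. They were seeded in 1536-well plates (5 μl) and pin-dosed with library compounds in DMSO over an 11-point threefold series, 47 μM to 0.79 nM. CellTiter-Glo One luminescence was read after 48 h at 37°C. Viability is the per-plate percentage relative to DMSO wells, with cell-free wells as background.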

P12-Ichikawa [2] = assay: as above
Method in brief: as §1

SEM cells [3] = assay: as above
Method in brief: as §1

NOMO1 [4] = assay: AUC of viability dose-response curve (% viability x log10 dose units); higher = less sensitive
Method in brief: (§2)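 Area under the curve was integrated by trapezoidal rule from a log-logistic fit of normalised viability, with curves exceeding full viability scaled and quality-control failures removed. The fit had four parameters over log10 doses. Viability came from CellTiter-Glo One luminescence, normalised per plate to DMSO and cell-free wells, after leukemia cells adapted to each medium (500 or 1000 cells/well, 1536-well plates) were exposed to library compounds in DMSO for 48 h at 37°C. The 11 threefold doses ran from 47 μM to 0.79 nM.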

P12-Ichikawa [5] = assay: as above
Method in brief: as §2

SEM cells [6] = assay: as above
Method in brief: as §2

O=C(Nc1ccc([N+](=O)[O-])cc1Cl)c1cc(Cl)ccc1O
cell viability [%]
Conditions	NOMO1 [1]	P12-Ichikawa [2]	SEM cells [3]
HPLM + 10% dialyzed FBS, 0.000781 µM	103	95.3	84.5
HPLM + 10% dialyzed FBS, 0.00234 µM	94.9	105	98.7
HPLM + 10% dialyzed FBS, 0.00702 µM	99.2	98.6	93.1
HPLM + 10% dialyzed FBS, 0.0211 µM	107	102	98.2
HPLM + 10% dialyzed FBS, 0.0632 µM	98.7	107	99.7
HPLM + 10% dialyzed FBS, 0.19 µM	120	106	97.6
HPLM + 10% dialyzed FBS, 0.569 µM	111	105	104
HPLM + 10% dialyzed FBS, 1.71 µM	57.4	88	43.3
HPLM + 10% dialyzed FBS, 5.12 µM	30	46	24.2
HPLM + 10% dialyzed FBS, 15.4 µM	40.3	12.9	64.1
HPLM + 10% dialyzed FBS, 46.1 µM	31.7	24.7	33.9
RPMI 5 mM glucose + 10% FBS, 0.000781 µM	85.1	92.2	75
RPMI 5 mM glucose + 10% FBS, 0.00234 µM	86.4	90.9	89.7
RPMI 5 mM glucose + 10% FBS, 0.00702 µM	84.1	96	96.8
RPMI 5 mM glucose + 10% FBS, 0.0211 µM	93	92.9	101
RPMI 5 mM glucose + 10% FBS, 0.0632 µM	94.5	104	101
RPMI 5 mM glucose + 10% FBS, 0.19 µM	89.1	106	105
RPMI 5 mM glucose + 10% FBS, 0.569 µM	82.7	102	117
RPMI 5 mM glucose + 10% FBS, 1.71 µM	62.3	71.6	22.1
RPMI 5 mM glucose + 10% FBS, 5.12 µM	32.5	33	19.7
RPMI 5 mM glucose + 10% FBS, 15.4 µM	72.8	17	3.97
RPMI 5 mM glucose + 10% FBS, 46.1 µM	48.7	26.3	32.3
RPMI 5 mM glucose + 10% dialyzed FBS, 0.000781 µM	88.8	81.5	96.9
RPMI 5 mM glucose + 10% dialyzed FBS, 0.00234 µM	94.3	92.7	85.7
RPMI 5 mM glucose + 10% dialyzed FBS, 0.00702 µM	91.3	81.4	88.8
RPMI 5 mM glucose + 10% dialyzed FBS, 0.0211 µM	90.9	91.9	103
RPMI 5 mM glucose + 10% dialyzed FBS, 0.0632 µM	103	87.2	96.7
RPMI 5 mM glucose + 10% dialyzed FBS, 0.19 µM	96.4	88	99.2
RPMI 5 mM glucose + 10% dialyzed FBS, 0.569 µM	101	94.2	123
RPMI 5 mM glucose + 10% dialyzed FBS, 1.71 µM	50.8	69	19.6
RPMI 5 mM glucose + 10% dialyzed FBS, 5.12 µM	34.6	31.4	17.1
RPMI 5 mM glucose + 10% dialyzed FBS, 15.4 µM	50.9	32.1	66.3
RPMI 5 mM glucose + 10% dialyzed FBS, 46.1 µM	47.9	5.22	47

AUC of viability dose-response curve
Conditions	NOMO1 [4]	P12-Ichikawa [5]	SEM cells [6]
HPLM + 10% dialyzed FBS	375	386	369
RPMI 5 mM glucose + 10% FBS	363	368	336
RPMI 5 mM glucose + 10% dialyzed FBS	372	335	370

CN(CCOc1ccc(NS(C)(=O)=O)cc1)CCc1ccc(NS(C)(=O)=O)cc1
cell viability [%]
Conditions	NOMO1 [1]	P12-Ichikawa [2]	SEM cells [3]
HPLM + 10% dialyzed FBS, 0.000781 µM	108	108	102
HPLM + 10% dialyzed FBS, 0.00234 µM	126	114	108
HPLM + 10% dialyzed FBS, 0.00702 µM	110	119	105
HPLM + 10% dialyzed FBS, 0.0211 µM	116	115	107
HPLM + 10% dialyzed FBS, 0.0632 µM	136	126	104
HPLM + 10% dialyzed FBS, 0.19 µM	138	127	120
HPLM + 10% dialyzed FBS, 0.569 µM	147	127	111
HPLM + 10% dialyzed FBS, 1.71 µM	133	111	117
HPLM + 10% dialyzed FBS, 5.12 µM	131	118	128
HPLM + 10% dialyzed FBS, 15.4 µM	135	123	93.9
HPLM + 10% dialyzed FBS, 46.1 µM	134	121	131
RPMI 5 mM glucose + 10% FBS, 0.000781 µM	121	118	89.9
RPMI 5 mM glucose + 10% FBS, 0.00234 µM	119	127	111
RPMI 5 mM glucose + 10% FBS, 0.00702 µM	109	116	101
RPMI 5 mM glucose + 10% FBS, 0.0211 µM	129	126	110
RPMI 5 mM glucose + 10% FBS, 0.0632 µM	117	121	122
RPMI 5 mM glucose + 10% FBS, 0.19 µM	120	129	101
RPMI 5 mM glucose + 10% FBS, 0.569 µM	135	131	119
RPMI 5 mM glucose + 10% FBS, 1.71 µM	120	126	107
RPMI 5 mM glucose + 10% FBS, 5.12 µM	141	125	109
RPMI 5 mM glucose + 10% FBS, 15.4 µM	118	136	79.7
RPMI 5 mM glucose + 10% FBS, 46.1 µM	136	126	94.6
RPMI 5 mM glucose + 10% dialyzed FBS, 0.000781 µM	–	113	85.2
RPMI 5 mM glucose + 10% dialyzed FBS, 0.00234 µM	–	114	95.2
RPMI 5 mM glucose + 10% dialyzed FBS, 0.00702 µM	–	114	102
RPMI 5 mM glucose + 10% dialyzed FBS, 0.0211 µM	–	114	100
RPMI 5 mM glucose + 10% dialyzed FBS, 0.0632 µM	–	117	94
RPMI 5 mM glucose + 10% dialyzed FBS, 0.19 µM	–	129	100
RPMI 5 mM glucose + 10% dialyzed FBS, 0.569 µM	–	123	96.9
RPMI 5 mM glucose + 10% dialyzed FBS, 1.71 µM	–	122	104
RPMI 5 mM glucose + 10% dialyzed FBS, 5.12 µM	–	120	96.1
RPMI 5 mM glucose + 10% dialyzed FBS, 15.4 µM	–	120	56.1
RPMI 5 mM glucose + 10% dialyzed FBS, 46.1 µM	–	115	91.6

AUC of viability dose-response curve
Conditions	NOMO1 [4]	P12-Ichikawa [5]	SEM cells [6]
HPLM + 10% dialyzed FBS	451	469	444
RPMI 5 mM glucose + 10% FBS	455	465	463
RPMI 5 mM glucose + 10% dialyzed FBS	463	464	447

CCc1ccc(C(=O)Nc2cc(CN3CCN(C)CC3)cc(C(F)(F)F)c2)cc1C#Cc1cnc2ccnn2c1
cell viability [%]
Conditions	NOMO1 [1]	P12-Ichikawa [2]	SEM cells [3]
HPLM + 10% dialyzed FBS, 0.000781 µM	117	126	121
HPLM + 10% dialyzed FBS, 0.00234 µM	113	118	113
HPLM + 10% dialyzed FBS, 0.00702 µM	123	114	122
HPLM + 10% dialyzed FBS, 0.0211 µM	118	121	126
HPLM + 10% dialyzed FBS, 0.0632 µM	109	120	116
HPLM + 10% dialyzed FBS, 0.19 µM	129	124	128
HPLM + 10% dialyzed FBS, 0.569 µM	134	118	77.4
HPLM + 10% dialyzed FBS, 1.71 µM	142	117	122
HPLM + 10% dialyzed FBS, 5.12 µM	104	112	109
HPLM + 10% dialyzed FBS, 15.4 µM	103	102	73.7
HPLM + 10% dialyzed FBS, 46.1 µM	101	88.2	74.4
RPMI 5 mM glucose + 10% FBS, 0.000781 µM	99.5	119	110
RPMI 5 mM glucose + 10% FBS, 0.00234 µM	112	122	118
RPMI 5 mM glucose + 10% FBS, 0.00702 µM	113	134	114
RPMI 5 mM glucose + 10% FBS, 0.0211 µM	114	113	109
RPMI 5 mM glucose + 10% FBS, 0.0632 µM	120	124	111
RPMI 5 mM glucose + 10% FBS, 0.19 µM	110	116	106
RPMI 5 mM glucose + 10% FBS, 0.569 µM	119	113	98.3
RPMI 5 mM glucose + 10% FBS, 1.71 µM	116	123	116
RPMI 5 mM glucose + 10% FBS, 5.12 µM	119	106	95.9
RPMI 5 mM glucose + 10% FBS, 15.4 µM	128	102	94.1
RPMI 5 mM glucose + 10% FBS, 46.1 µM	102	87.3	71.9
RPMI 5 mM glucose + 10% dialyzed FBS, 0.000781 µM	115	130	–
RPMI 5 mM glucose + 10% dialyzed FBS, 0.00234 µM	119	118	–
RPMI 5 mM glucose + 10% dialyzed FBS, 0.00702 µM	107	121	–
RPMI 5 mM glucose + 10% dialyzed FBS, 0.0211 µM	112	113	–
RPMI 5 mM glucose + 10% dialyzed FBS, 0.0632 µM	120	111	–
RPMI 5 mM glucose + 10% dialyzed FBS, 0.19 µM	114	119	–
RPMI 5 mM glucose + 10% dialyzed FBS, 0.569 µM	125	107	–
RPMI 5 mM glucose + 10% dialyzed FBS, 1.71 µM	119	108	–
RPMI 5 mM glucose + 10% dialyzed FBS, 5.12 µM	120	104	–
RPMI 5 mM glucose + 10% dialyzed FBS, 15.4 µM	107	99.1	–
RPMI 5 mM glucose + 10% dialyzed FBS, 46.1 µM	113	83.8	–

AUC of viability dose-response curve
Conditions	NOMO1 [4]	P12-Ichikawa [5]	SEM cells [6]
HPLM + 10% dialyzed FBS	459	459	449
RPMI 5 mM glucose + 10% FBS	460	454	453
RPMI 5 mM glucose + 10% dialyzed FBS	477	415	451
